Test results: patent US20090054317A1 (priority 2006, published 2009)

System: toxin-induced cell death in RAW264.7 cells
Settings: mouse

`CC(=O)N[C@@H](C)C(=O)N[C@@H](Cc1c[nH]c2ccccc12)C(=O)N1CCC[C@H]1C(=O)N[C@@H](CC(C)C)C(=O)N[C@@H](CO)C(=O)N[C@@H](CCC(N)=O)C(=O)N[C@@H](CC(C)C)C(=O)N[C@@H](CC(=O)O)C(=O)N[C@@H](Cc1c[nH]cn1)C(=O)N[C@@H](CO)C(=O)N[C@@H](Cc1ccc(O)cc1)C(=O)N[C@@H](CC(N)=O)C(=O)N[C@@H](CS)C(N)=O` [corresponding monovalent peptide] was tested. Which IC50 did it give?
Its IC50 is > 2000 µM.
